Measured values published in the supplement of paper PMC10307832.

The cell lines below were run with N#CC1(c2ccc(NC(=O)c3cccnc3NCc3ccncc3)cc2)CCCC1 [Apatinib] + Cc1cc(Nc2cc(N3CCN(C)CC3)nc(Sc3ccc(NC(=O)C4CC4)cc3)n2)n[nH]1 [Tozasertib] (partner 0.1 µM) (assay: relative viability (nuclei count vs DMSO), 5 days (fraction); higher = more cells survive). Conditions: first compound 8 µM.
Summary of the method: (§1)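 Lung cancer cell lines were seeded in 1536-well plates and dosed by pin tool the next day, with either a single drug or a fixed anchor-drug dose combined with five library-drug doses (not always all listed) spaced in √10 steps. Five days later, one step fixed the cells and stained their nuclei (final 0.05% Triton X-100, 1% formaldehyde, 1 ug/ml Hoechst), and nuclei were counted on 4× images. Relative viability is the nuclei count in treated wells divided by the count in vehicle wells, and each value is the median of duplicate plates.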

Point of comparison: NCI-H1648, relative viability 0.197. Against it:
- NCI-H1623 — higher, 0.407

These cell lines were tested with CN(C)C(=N)NC(=N)N [Metformin] + O=C(CCCCCCC(=O)Nc1ccccc1)NO [Vorinostat] (partner 1 µM) in the same assay as above. Conditions: first compound 10 µM.
Summary of the method: as §1

Point of comparison: LOU-NH91, relative viability 0.86. Against it:
- A-427 — lower, 0.848
- BEN — lower, 0.56
- CAL-12T — lower, 0.729
- COR-L23 — lower, 0.312
- COR-L 105 — lower, 0.795
- ChaGo-K-1 — lower, 0.663
- EMC-BAC-2 — lower, 0.474
- EPLC-272H — lower, 0.529
- H3255 — lower, 0.627
- HARA — lower, 0.419
- HCC-15 — lower, 0.84
- HCC-366 — lower, 0.201
- HCC-827 — lower, 0.483
- HOP-62 — lower, 0.425
- IA-LM — higher, 1.01
- LCLC-103H — lower, 0.569
- LK-2 — lower, 0.232
- LU99A — lower, 0.417
- LXF-289 — lower, 0.65
- NCI-H23 — lower, 0.618
- NCI-H322M — higher, 0.946
- NCI-H358 — lower, 0.546
- NCI-H520 — lower, 0.748
- NCI-H522 — higher, 1.15

Same assay, conditions: first compound 31.62 µM

Point of comparison: H3255, relative viability 0.921. Against it:
- 201T — higher, 1.02
- A-427 — lower, 0.863
- ABC-1 — higher, 0.953
- BEN — lower, 0.728
- CAL-12T — lower, 0.742
- COR-L23 — lower, 0.304
- COR-L 105 — lower, 0.807
- ChaGo-K-1 — lower, 0.777
- EKVX — lower, 0.67
- EMC-BAC-2 — lower, 0.417
- EPLC-272H — lower, 0.352
- HARA — lower, 0.587
- HCC-15 — lower, 0.849
- HCC-44 — higher, 1.02
- HCC-78 — lower, 0.479
- HCC-366 — lower, 0.431
- HCC-827 — lower, 0.84
- HOP-62 — lower, 0.705
- IA-LM — higher, 1.04
- LC-2-ad — lower, 0.64
- LCLC-97TM1 — lower, 0.675
- LCLC-103H — lower, 0.79
- LK-2 — lower, 0.264
- LOU-NH91 — lower, 0.852
- LU99A — lower, 0.579
- LXF-289 — lower, 0.661
- NCI-H23 — lower, 0.574
- NCI-H322M — lower, 0.861
- NCI-H358 — lower, 0.584
- NCI-H441 — lower, 0.513
- NCI-H520 — lower, 0.757
- NCI-H522 — higher, 1.11
- NCI-H1648 — lower, 0.5

Same assay, conditions: first compound 100 µM

Point of comparison: A-427, relative viability 0.827. Against it:
- 201T — higher, 0.972
- ABC-1 — higher, 1.1
- BEN — lower, 0.64
- CAL-12T — lower, 0.585
- COR-L23 — lower, 0.406
- COR-L 105 — higher, 0.895
- ChaGo-K-1 — lower, 0.751
- EKVX — lower, 0.655
- EPLC-272H — lower, 0.383
- H3255 — lower, 0.758
- HARA — lower, 0.39
- HCC-15 — higher, 0.959
- HCC-44 — higher, 1.09
- HCC-78 — lower, 0.559
- HCC-366 — lower, 0.282
- HCC-827 — higher, 1.02
- HOP-62 — lower, 0.699
- IA-LM — higher, 1.03
- LC-2-ad — lower, 0.657
- LCLC-97TM1 — lower, 0.711
- LCLC-103H — lower, 0.795
- LK-2 — lower, 0.273
- LOU-NH91 — higher, 0.839
- LU99A — lower, 0.411
- LXF-289 — lower, 0.712
- NCI-H23 — lower, 0.653
- NCI-H322M — higher, 0.945
- NCI-H358 — lower, 0.577
- NCI-H441 — lower, 0.69
- NCI-H520 — higher, 0.84
- NCI-H522 — higher, 0.923
- NCI-H1648 — higher, 1.07

Same assay, conditions: first compound 316.23 µM

Point of comparison: NCI-H441, relative viability 0.51. Against it:
- 201T — higher, 0.98
- A-427 — higher, 0.819
- ABC-1 — higher, 1.08
- BEN — lower, 0.494
- CAL-12T — higher, 0.691
- COR-L23 — lower, 0.288
- COR-L 105 — higher, 0.848
- ChaGo-K-1 — higher, 0.667
- EKVX — higher, 0.644
- EMC-BAC-2 — lower, 0.492
- EPLC-272H — lower, 0.4
- H3255 — higher, 0.811
- HARA — lower, 0.382
- HCC-15 — higher, 0.77
- HCC-44 — higher, 1.06
- HCC-78 — higher, 0.516
- HCC-366 — lower, 0.326
- HCC-827 — higher, 0.776
- HOP-62 — lower, 0.456
- IA-LM — higher, 0.901
- LC-2-ad — higher, 0.596
- LCLC-97TM1 — higher, 0.601
- LCLC-103H — higher, 0.788
- LK-2 — lower, 0.339
- LOU-NH91 — higher, 0.925
- LU99A — lower, 0.397
- LXF-289 — higher, 0.66
- NCI-H23 — higher, 0.561
- NCI-H322M — higher, 0.865
- NCI-H358 — higher, 0.578
- NCI-H520 — higher, 0.714
- NCI-H522 — higher, 0.99
- NCI-H1648 — higher, 0.703

Same assay, conditions: first compound 1000 µM

Point of comparison: NCI-H520, relative viability 0.763. Against it:
- 201T — higher, 1.03
- A-427 — higher, 0.776
- ABC-1 — lower, 0.332
- BEN — lower, 0.625
- CAL-12T — lower, 0.743
- COR-L23 — lower, 0.362
- COR-L 105 — lower, 0.495
- ChaGo-K-1 — lower, 0.723
- EKVX — lower, 0.762
- EMC-BAC-2 — lower, 0.37
- EPLC-272H — lower, 0.579
- H3255 — higher, 0.929
- HARA — lower, 0.445
- HCC-15 — higher, 0.95
- HCC-44 — higher, 1.03
- HCC-78 — lower, 0.417
- HCC-366 — lower, 0.472
- HCC-827 — higher, 0.943
- HOP-62 — lower, 0.738
- IA-LM — higher, 0.962
- LC-2-ad — higher, 0.803
- LCLC-97TM1 — lower, 0.704
- LCLC-103H — higher, 0.873
- LK-2 — lower, 0.397
- LOU-NH91 — higher, 0.833
- LU99A — lower, 0.479
- LXF-289 — lower, 0.729
- NCI-H23 — higher, 0.848
- NCI-H322M — lower, 0.702
- NCI-H358 — lower, 0.525
- NCI-H441 — higher, 0.866
- NCI-H522 — higher, 1.03
- NCI-H1648 — higher, 0.91
